This data set is described as follows: Appearance of formulation (state at 25° C.). It is filed as physicochemical. As to conditions: 25° C.; components (A) and (B) at the compounding molar ratio shown. The protocol: Formulations 1 to 427 shown in Tables 1A to 1D were prepared by the above-described method using the components (A) and (B) at the compounding molar ratios shown in the tables, and their states at 25° C. were observed.

As to `N[C@@H](Cc1c[nH]cn1)C(=O)O.O=C(O)C=Cc1ccccc1` [Formulation 103], the “state at 25° C.” value is “Solid”. In the case of `N[C@@H](Cc1c[nH]cn1)C(=O)O.O=C1O[C@H]([C@@H](O)CO)C(O)=C1O` [Formulation 104], the “state at 25° C.” value is on record as “Solid”. As for `N[C@@H](Cc1c[nH]cn1)C(=O)O.O=CO.O=CO` [Formulation 106], the “state at 25° C.” value was “Solid”. With `CCCCCC(=O)O.CCCCCC(=O)O.N[C@@H](Cc1cnc[nH]1)C(=O)O` [Formulation 109] the entry was “Solid”; with `CCCC(=O)O.CCCC(=O)O.N[C@@H](Cc1cnc[nH]1)C(=O)O` [Formulation 110], “Solid”. With `CCCCCCCC/C=C\CCCCCCCC(=O)O.CCCCCCCC/C=C\CCCCCCCC(=O)O.N[C@@H](Cc1c[nH]cn1)C(=O)O` [Formulation 112] the entry was “Solid”; with `CCCCC/C=C\C/C=C\CCCCCCCC(=O)O.CCCCC/C=C\C/C=C\CCCCCCCC(=O)O.N[C@@H](Cc1cnc[nH]1)C(=O)O` [Formulation 113], “Solid”.

For the molecule `N[C@@H](Cc1cnc[nH]1)C(=O)O.O=C(O)CCCCC(=O)O.O=C(O)CCCCC(=O)O` [Formulation 116], the “state at 25° C.” value was “Solid”. As for `N[C@@H](Cc1c[nH]cn1)C(=O)O.O=C(O)C[C@H](O)C(=O)O.O=C(O)C[C@H](O)C(=O)O` [Formulation 120], the “state at 25° C.” value is listed as “Solid”. In the case of `N[C@@H](Cc1c[nH]cn1)C(=O)O.O=C(O)C(O)C(O)C(=O)O.O=C(O)C(O)C(O)C(=O)O` [Formulation 122] it was “Solid”; in that of `N[C@@H](Cc1c[nH]cn1)C(=O)O.O=C(O)c1ccccc1.O=C(O)c1ccccc1` [Formulation 123], “Solid”.

Consider `N[C@@H](Cc1c[nH]cn1)C(=O)O.O=C(O)/C=C/c1ccccc1.O=C(O)/C=C/c1ccccc1` [Formulation 124], for which the “state at 25° C.” value is reported as “Solid”. In the case of `N[C@@H](Cc1c[nH]cn1)C(=O)O.O=C1O[C@H]([C@@H](O)CO)C(O)=C1O.O=C1O[C@H]([C@@H](O)CO)C(O)=C1O` [Formulation 125] it was “Solid”; in that of `CC(=O)O.NCC(=O)O` [Formulation 128], “Solid”. Consider `CCC(=O)O.NCC(=O)O` [Formulation 129], for which the “state at 25° C.” value was “Solid”. In the case of `CCCCCC(=O)O.NCC(=O)O` [Formulation 130] it was “Solid”; in that of `CCCC(=O)O.NCC(=O)O` [Formulation 131], “Solid”. With `CCCCCCCC/C=C\CCCCCCCC(=O)O.NCC(=O)O` [Formulation 133] the entry was “Solid”; with `CCCCC/C=C\C/C=C\CCCCCCCC(=O)O.NCC(=O)O` [Formulation 134], “Solid”. With `NCC(=O)O.O=C(O)[C@H](O)[C@@H](O)[C@H](O)[C@H](O)CO` [Formulation 135] the entry was “Solid”; with `CC(O)C(=O)O.NCC(=O)O` (stereo not drawn) [Formulation 136], “Solid”. Take `NCC(=O)O.O=C(O)CCCCC(=O)O` [Formulation 137]: the “state at 25° C.” value is recorded as “Solid”. In the case of `NCC(=O)O.O=C(O)CCC(=O)O` [Formulation 138] it was “Solid”; in that of `NCC(=O)O.N[C@@H](CCC(=O)O)C(=O)O` [Formulation 139], “Solid”.

For `NCC(=O)O.O=C(O)/C=C/C(=O)O` [Formulation 140], the “state at 25° C.” value was “Solid”.

Consider `NCC(=O)O.O=C(O)C[C@H](O)C(=O)O` [Formulation 141], for which the “state at 25° C.” value was “Solid”.

In the case of `NCC(=O)O.O=C(O)C(O)C(O)C(=O)O` (stereo not drawn) [Formulation 143], the “state at 25° C.” value was “Solid”.

For `NCC(=O)O.O=C(O)c1ccccc1` [Formulation 144], the “state at 25° C.” value is on record as “Solid”. Consider `NCC(=O)O.O=C1O[C@H]([C@@H](O)CO)C(O)=C1O` [Formulation 145], for which the “state at 25° C.” value is reported as “Solid”. For the molecule `NCC(=O)O.O=C1O[C@H]([C@H](O)CO)C(O)=C1O` [Formulation 146], the “state at 25° C.” value is reported as “Solid”. On to `C[C@H](N)C(=O)O.O=CO` [Formulation 147], for which the “state at 25° C.” value is recorded as “Solid”. Turning to `CC(=O)O.C[C@H](N)C(=O)O` [Formulation 148], the “state at 25° C.” value is recorded as “Solid”. In the case of `CCC(=O)O.C[C@H](N)C(=O)O` [Formulation 149] it was “Solid”; in that of `CCCCCC(=O)O.C[C@H](N)C(=O)O` [Formulation 150], “Solid”; in that of `CCCC(=O)O.C[C@H](N)C(=O)O` [Formulation 151], “Solid”. As to `CCCCCCCC/C=C\CCCCCCCC(=O)O.C[C@H](N)C(=O)O` [Formulation 153], the “state at 25° C.” value is given as “Solid”. As to `CCCCC/C=C\C/C=C\CCCCCCCC(=O)O.C[C@H](N)C(=O)O` [Formulation 154], the “state at 25° C.” value is on record as “Solid”. In the case of `C[C@H](N)C(=O)O.O=C(O)C(O)C(O)C(O)C(O)CO` (stereo not drawn) [Formulation 155], the “state at 25° C.” value is “Solid”.

In the case of `CC(O)C(=O)O.C[C@H](N)C(=O)O` (stereo not drawn) [Formulation 156], the “state at 25° C.” value is reported as “Solid”. `C[C@H](N)C(=O)O.O=C(O)CCCCC(=O)O` [Formulation 157]: the “state at 25° C.” value was “Solid”. `C[C@H](N)C(=O)O.O=C(O)CCC(=O)O` [Formulation 158]: the “state at 25° C.” value is reported as “Solid”. With `C[C@H](N)C(=O)O.N[C@@H](CCC(=O)O)C(=O)O` [Formulation 159] the entry was “Solid”; with `C[C@H](N)C(=O)O.O=C(O)/C=C/C(=O)O` [Formulation 160], “Solid”; with `C[C@H](N)C(=O)O.O=C(O)C[C@H](O)C(=O)O` [Formulation 161], “Solid”. In the case of `C[C@H](N)C(=O)O.O=C(O)CC(O)(CC(=O)O)C(=O)O` [Formulation 162] it was “Solid”; in that of `C[C@H](N)C(=O)O.O=C(O)C(O)C(O)C(=O)O` (stereo not drawn) [Formulation 163], “Solid”.

With `C[C@H](N)C(=O)O.O=C(O)c1ccccc1` [Formulation 164], the “state at 25° C.” value is recorded as “Solid”.

For the molecule `C[C@H](N)C(=O)O.O=C1O[C@H]([C@@H](O)CO)C(O)=C1O` [Formulation 165], the “state at 25° C.” value was “Solid”. Consider `C[C@H](N)C(=O)O.O=C1O[C@H]([C@H](O)CO)C(O)=C1O` [Formulation 166], for which the “state at 25° C.” value was “Solid”.

On to `NCCCC(=O)O.O=CO` [Formulation 167], for which the “state at 25° C.” value was “Solid”.

Turning to `CC(=O)O.NCCCC(=O)O` [Formulation 168], the “state at 25° C.” value is “Solid”. With `CCC(=O)O.NCCCC(=O)O` [Formulation 169], the “state at 25° C.” value is reported as “Solid”. With `CCCCCC(=O)O.NCCCC(=O)O` [Formulation 170] the entry was “Solid”; with `CCCC(=O)O.NCCCC(=O)O` [Formulation 171], “Solid”.

As for `CCCCC/C=C\C/C=C\CCCCCCCC(=O)O.NCCCC(=O)O` [Formulation 174], the “state at 25° C.” value is reported as “Solid”. In the case of `NCCCC(=O)O.O=C(O)CCCCC(=O)O` [Formulation 177] it was “Solid”.

Take `NCCCC(=O)O.O=C(O)CCC(=O)O` [Formulation 178]: the “state at 25° C.” value is given as “Solid”.

On to `NCCCC(=O)O.N[C@@H](CCC(=O)O)C(=O)O` [Formulation 179], for which the “state at 25° C.” value is on record as “Solid”. For `NCCCC(=O)O.O=C(O)/C=C/C(=O)O` [Formulation 180], the “state at 25° C.” value was “Solid”. With `NCCCC(=O)O.O=C(O)C[C@H](O)C(=O)O` [Formulation 181] the entry was “Solid”.

Turning to `NCCCC(=O)O.O=C(O)C(O)C(O)C(=O)O` (stereo not drawn) [Formulation 183], the “state at 25° C.” value is listed as “Solid”.

Consider `NCCCC(=O)O.O=C(O)c1ccccc1` [Formulation 184], for which the “state at 25° C.” value is reported as “Solid”. With `NCCCC(=O)O.O=C1O[C@H]([C@@H](O)CO)C(O)=C1O` [Formulation 185] the entry was “Solid”; with `NCCCC(=O)O.O=C1O[C@H]([C@H](O)CO)C(O)=C1O` [Formulation 186], “Solid”. With `CC(C)[C@H](N)C(=O)O.O=CO` [Formulation 187] the entry was “Solid”; with `CC(=O)O.CC(C)[C@H](N)C(=O)O` [Formulation 188], “Solid”. For the molecule `CC(C)[C@H](N)C(=O)O.CCC(=O)O` [Formulation 189], the “state at 25° C.” value is “Solid”.

Turning to `CC(C)[C@H](N)C(=O)O.CCCCCC(=O)O` [Formulation 190], the “state at 25° C.” value is “Solid”. With `CC(C)[C@H](N)C(=O)O.CCCC(=O)O` [Formulation 191], the “state at 25° C.” value is reported as “Solid”.

In the case of `CC(C)[C@H](N)C(=O)O.O=C(O)[C@H](O)[C@@H](O)[C@H](O)[C@H](O)CO` [Formulation 192], the “state at 25° C.” value is recorded as “Solid”.

With `CC(C)[C@H](N)C(=O)O.CC(O)C(=O)O` [Formulation 193], the “state at 25° C.” value is recorded as “Solid”. With `CC(C)[C@H](N)C(=O)O.O=C(O)CCCCC(=O)O` [Formulation 194] the entry was “Solid”.

`CC(C)[C@H](N)C(=O)O.O=C(O)CCC(=O)O` [Formulation 195]: the “state at 25° C.” value was “Solid”. With `CC(C)[C@H](N)C(=O)O.N[C@@H](CCC(=O)O)C(=O)O` [Formulation 196] the entry was “Solid”; with `CC(C)[C@H](N)C(=O)O.O=C(O)/C=C/C(=O)O` [Formulation 197], “Solid”; with `CC(C)[C@H](N)C(=O)O.O=C(O)C[C@H](O)C(=O)O` [Formulation 198], “Solid”. `CC(C)[C@H](N)C(=O)O.O=C(O)CC(O)(CC(=O)O)C(=O)O` [Formulation 199]: the “state at 25° C.” value was “Solid”. With `CC(C)[C@H](N)C(=O)O.O=C(O)C(O)C(O)C(=O)O` (stereo not drawn) [Formulation 200] the entry was “Solid”.

These data come from US20250186321A1, “FORMULATION USING AMINO ACID AND CARBOXYLIC ACID, ORGANIC SALT, AND COMPOSITION COMPRISING SAME AND USE THEREOF” (MIYOSHI OIL & FAT CO., LTD., priority 2021, published 2025).
